Read-outs that look alike come from different tables or passages of the source.
Key:
MAO [1] = assay: Time-dependence and reversibility of MAO inhibition (rat brain mitochondria, 14C p-tyramine); format: biochemical; conditions: phosphate buffer pH 7.2, 14C p-tyramine
Description: (B) The compounds of Formula I or II can be tested to determine whether or not the MAO inhibition follows time-dependent kinetics by the procedure described below:
Mitochondria are prepared from rat brain by homogenation in phosphate buffer (0.1 M, pH 7.2) followed by differential centrifugation. The mitochondria are suspended in the same buffer, the test compound is added at the desired concentration, and the system is incubated. At different time intervals, aliquots are taken and MAO activity is measured using ^14 C p-tyramine (a mixed substrate) as the substrate (See A. Christmas, et al, supra). When the compounds shown in Table I were tested according to the above-described procedure, the MAO inhibitory activity increased as a function of time of incubation. The initial rate of decrease of activity increased with increasing concentration of inhibitor.

MAO [2] = assay: Inhibition of MAO - In vitro (14C p-tyramine substrate, partially purified rat brain mitochondria); format: biochemical; conditions: tested as hydrochloride salt, read-out: IC50 (MAO inhibitory activity - In vitro)
Description: (A) The ability of a compound of Formula I or II to inhibit MAO can be determined in vitro by the method of A. Christmas et al, Br. J. Pharmacol. 45, 490 (1972) in partially purified mitochondria from rat brain using ^14 C p-tyramine as the substrate.

MAO [3] = assay: Inhibition of MAO - Ex vivo, rat (14C p-tyramine substrate); format: in vivo; conditions: for % Inhibition of MAO - Brain: 18 hr
Description: The ability of a compound of Formula I or II to inhibit MAO can be determined ex vivo by the following procedure:
The test compound is administered intraperitoneally (ip), intravenously (iv), or orally (po) to rats or mice and the animals are killed at various times after treatment. […] MAO activity is determined in the homogenates using ^14 C p-tyramine, as the substrate. […] Selectivity can be determined by repeating the above-described test using either ^14 C 5-hydroxytryptamine (for MAO-A) or ^14 C phenethylamine (for MAO-B) as the substrate for determining the % inhibition

[4] = system: heart rate response to p-tyramine; conditions: rat, in vivo, iv
Description: (§1) The following test procedure can be employed to assess the potential of a compound of Formula I or II for producing the "cheese effect":
(§2) Rats are administered an intravenous injection of the test compound at various dosage levels, and 30 minutes later the rats are challenged with several intravenous or intraduodenal dodes of p-tyramine. The heart rate response is measured.

depression = conditions: literature; cited from earlier work
[5] = system: heart rate response to p-tyramine; assay: Cheese effect: potentiation of heart-rate response to p-tyramine in rats; conditions: rat, dose 0.1 (iv), p-tyramine i.d.
Description: as §1, §2

MAO-B versus MAO-A = conditions: literature figure; cited from earlier work
MAO-A and MAO-B = conditions: literature, cited from earlier work

SMILES	time-dependent inhibitory kinetics (MAO [1])	IC50 (MAO [2]) [µM]	% Inhibition of MAO - Duodenum (MAO [3]; 0.1 mg/kg iv, 2 hr) [%]	% Inhibition of MAO - Heart (MAO [3]; 0.1 mg/kg iv, 2 hr) [%]	% Inhibition of MAO - Brain (MAO [3]; 1.0 mg/kg po) [%]	% Inhibition of MAO - Brain (MAO [3]; 5.0 mg/kg po) [%]	Potentiation of heart-rate response to p-tyramine [4] [fold]	clinical effectiveness as antidepressant (in words) (depression)	Potentiation of heart-rate response to p-tyramine [5] [fold]	Selectivity (ratio of inhibitory activity against MAO-B versus MAO-A) (MAO-B versus MAO-A)	preferential inhibition of MAO-A or MAO-B (in words) (MAO-A and MAO-B)	dose-dependence of MAO selectivity (in words) (MAO-A and MAO-B; lower vs higher dosages)
NC/C(=C\Cl)c1ccccc1 [(Z)-2-phenyl-3-chloroallylamine, (Z)-2-Phenyl-3-chloroallylamine]	did not show time-dependent inhibitory kinetics	500										
C#CCN(C)CCCOc1ccc(Cl)cc1Cl [clorgyline, reference compound]		0.1	87	84	20	64	5.2	clinically effective antidepressant agents	5.6			
C#CCN(C)Cc1ccccc1 [pargyline]		2						clinically effective antidepressant agents		10	MAO-B is preferentially inhibited	selective inhibitors at lower dosages, but are not selective inhibitors at higher dosages

Reference: patent US4454158A, “Allyl amine MAO inhibitors” (Merrell Toraude et Compagnie, priority 1981, dated 1984)
